According to patent US10092566B2, “Composition for controlling a gut immunity and use thereof” (SEOUL NATIONAL UNIVERSITY R&DB FOUNDATION, priority 2013, dated 2018):
“Also recorded” adds a separate entry of the source.

Legend:
PLCβ = PLCβ position in cell membrane (PLCβ-RFP flies); assay type: in vivo, Drosophila; conditions: uracil 20 nM for 2 hours
Experimental: Genetically modified Drosophila containing PLCβ-RFP (UAS-PLCβ-RFP; Da-GAL4) were used to monitor activated PLCβ generation which is targeted in the membrane as disclosed in the previous research (Ha et al., Nat Immunol 10, pp. 949-957, 2009). A 5% sucrose solution containing 20 nM of uracil was ingested by Drosophila (5 to 6 days old) for 2 hours.

p38 = p38 activation by phospho-p38 immune staining of midgut; assay type: in vivo, Drosophila; conditions: uracil 20 nM for 2 hours
Experimental: To examine uracil-induced p38 activation, a 5% sucrose solution containing 20 nM of uracil was orally administered to genetically different adult Drosophila (5 to 6 days old) for 2 hours. Midguts were dissected in PBS and fixed with 4% paraformaldehyde for 15 minutes. The midguts were washed three times with PBS containing 0.1% of Triton X-100 for 5 minutes and were cultured in the above solution with additional 5% cow blood serum albumin for 1 hour. Next, the sample was cultured with additional phospho-specific anti-p38 antibody (1:500 dilution; Millipore, Milford, Mass., USA) at 4° C. for 16 hours. The sample was washed five times with PBS containing 0.1% Triton X-100 for 5 minutes and cultured at room temperature for 20 minutes after adding secondary antibodies (1:500 dilution; Alexa Fluor 568 goat anti-rabbit IgG; Invitrogen, Carlsbad, Calif., USA). After washing the sample three times with PBS containing 0.1% Triton X-100 for 5 minutes, the sample was mounted with mounting buffer solution (Vectorshield, Vector Laboratories Inc., Burlingame, Calif., USA) and was analyzed by LSM 700 confocal microscopy (Carl Zeiss, Oberkochen, Germany)

DUOX2 = assay: ROS measurement in human epithelial cells (Caco-2, NHNE; DCF-DA); assay type: cell-based; conditions: uracil 50 nM, 15 minutes; Caco-2 and normal human nasal epithelial cells
Excerpt: Human middle turbinated bone specimens were obtained from healthy volunteers after the research proposal was approved by Yonsei University College of Medicine Audit Committee. The culture system used for normal human nasal epithelial (NHNE) cells is disclosed in the previous research (Yoon et al., Am J Respir Cell Mol Biol 16, pp. 724-731, 1997; Yoon et al., Ann Otol Rhinol Laryngol 109, pp. 594-601, 2000). Briefly speaking, two passages of NHNE cells (1×10^5 cells/culture) were inoculated into a Transwell-transparent culturing insert characterized by 24.5 mm and 0.45 μm pore sizes (Costar Co., Corning, N.Y., USA) containing 0.5 mL of culturing media. The cells were cultured in a 1:1 mixture containing basic epithelium growth media including all additives disclosed in the previous research (Yoon et al., Ann Otol Rhinol Laryngol 109, pp. 594-601, 2000) and Dulbecco' s Modified Eagle Medium (DMEM). […]
After stimulating NHNE cells or Caco-2 cells, the cells were washed with Hanks' balanced salt solution (HBSS), were placed in Krebs-Ringer solution containing 5 μM of 2′,7′-dichlorofluorescin diacetate (DCF-DA; Molecular Probes, Eugene Oreg., USA), and cultured in darkness for 10 minutes. […] Fluorescence was measured at an excitation wavelength of 488 nm and an emission wavelength ranging from 515 nm to 540 nm. […]

germ-free Drosophila = assay: Survival duration of germ-free flies on uracil-containing media; assay type: in vivo
Excerpt: Control Drosophila and PLCβ-DUOX pathway-mediated mutated Drosophila (PLCβ^−/− and DUOX-RNAi) were used in the experiment. It is known that PLCβ^−/− and DUOX-RNAi flies have a short life span under conventional rearing conditions but a normal life span under germ-free conditions (Ha et al., Nat Immunol 10, pp. 949-957, 2009). Therefore, to examine the effects of uracil on the survival rate of genetically different Drosophila, germ-free animals were used. Germ-free animals were reared in germ-free media containing 1 nM of uracil. Germ-free animals were moved to a newly sterilized bottle that had germ-free media containing uracil every 4 or 5 days. Drosophila remained germ-free throughout the entire experimental processes.

O=c1cc[nH]c(=O)[nH]1 [uracil]
PLC activation (membrane localization of active PLC) (PLCβ): PLC activation | p38 MAPK activation (p38): p38 MAPK activation | DUOX-dependent ROS generation in human mucosal epithelial cells (DUOX2): able to activate DUOX-dependent ROS generation | host lethality / mortality after long-term ingestion of uracil (germ-free Drosophila; germ-free control flies, uracil-containing vs normal food): lethality of control flies in a dose-dependent manner; also recorded: statistically significant difference in mortality | uracil-induced host pathology in PLCβ−/− or DUOX-RNAi flies (germ-free Drosophila; in vivo): completely absent
